We go through 3 molecules from patent publication US5861403A, “Purinylalkyl benzamide derivatives” (G. D. Searle & Co., priority 1996, dated 1999).

For the test, the target named is T1, Human Platelet Receptor (Homo sapiens, UniProt P25105).
T1 construct: tissue Lifesource, Inc. (Glenview, Ill.); host or cells: human packed platelets, washed, broken by freeze-thaw; membrane pellet
Description: Human Platelet Receptor Binding (inhibition of specific binding of [^3 H]PAF to human platelet membrane preparation). Particulars: 0.5 h, 0.75 nM [^3 H]PAF, human platelet membranes, read-out: Human Platelet Receptor, % @ 10 μM (percent displacement). The procedure: Assay B: Human Platelet Receptor Binding
Compounds of the invention were evaluated for their ability to inhibit specific binding of [^3 H]PAF to human platelet membrane preparation. Human packed platelets were obtained from Lifesource, Inc. (Glenview, Ill.) and washed 3 times with 10 mM Trizma pH 7.0, 2 mM EDTA (dipotassium salt), 150 mM KCl and then once with 10 mM Trizma 7.4, 20 mM CaCl2. The platelets were broken by freezing in a dry ice-ethanol bath, followed by thawing in 24° C. water baths. The preparation was centrifuged (40,000 x g, 20 minutes, […]) and the pellet suspended in 10 mM Trizma 7.4, 20 mM CaCl2, 5 mg/ml human albumin. Protein concentration in the platelet membrane preparation was determined by the Lowry method [O. H. Lowry et al., J. Biol. Chem., 193, 265-275 (1951)]. Aliquots of the membrane preparation were stored at -70° C. Each preparation was characterized for PAF receptor number and dissociation constant (Kd). In binding assays 5 μl of test compound, solubilized in DMSO, was added to polypropylene tubes along with 0.75 nM [^3 H]PAF and 200 mcl [[…]] of membranes and 95 μl 10 mM Trizma 7.4, 20 mM CaCl2, 5 mg/ml human albumin. Tubes were incubated for 30 minutes at 24° C. The incubation was terminated by adding 4 ml of ice-cold 10 mM Trizma pH 7.4, 20 mM CaCl2 and 20 mg/ml BSA prior to vacuum filtration using Whatman GF/C filters. Filters were prepared and counted in a scintillation counter. All DPM values (disintergrations per minute) were-corrected for background and isotope decay. Triplicate determinations for single doses were averaged. […] The IC50 values for the compounds of the invention were determined by the Allfit program using percent displacement data. (Allfit is a `basic` computer program for simultaneous curve fitting of a family of signoidal dose-response curves using the four parameter logistic equation.) Results are shown in Table I. In Table 1 "N.D." means not determined; "c-pent" means cyclopentyl; "c-hex" means cyclohexyl; "i-Pr" means isopropyl; "Me" means methyl; and "OMe" means methoxy.

T1 sequence (P25105 whole entry): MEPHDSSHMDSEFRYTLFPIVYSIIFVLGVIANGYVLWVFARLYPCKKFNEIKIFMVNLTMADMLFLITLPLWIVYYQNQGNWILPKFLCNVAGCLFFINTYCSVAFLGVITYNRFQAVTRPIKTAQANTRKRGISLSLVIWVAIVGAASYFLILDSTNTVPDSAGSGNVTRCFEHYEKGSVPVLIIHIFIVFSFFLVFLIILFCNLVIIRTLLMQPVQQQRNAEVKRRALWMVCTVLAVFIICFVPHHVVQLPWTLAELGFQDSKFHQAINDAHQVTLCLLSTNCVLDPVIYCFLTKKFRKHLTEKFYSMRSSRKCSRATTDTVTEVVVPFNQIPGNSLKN

As for `CC(C)N(C(=O)c1ccc(Cn2cnc3ncnc-3c2)cc1)C1CCCCC1` [Example 8, N-cyclohexyl-N-(1-methylethyl)-4-(1H-purin-1-ylmethyl)benzamide], the inhibition at 10 µM amounted to 19%. For `COc1cc(Cn2cnc3ncnc-3c2)ccc1C(=O)N(C(C)C)C1CCCCC1` [Example 7, N-cyclohexyl-2-methoxy-N-(1-methylethyl)-4-(1H-purin-1-ylmethyl)benzamide], the inhibition at 10 µM stood at 40%. The result for `COc1cc(Cn2cnc3ncncc32)ccc1C(=O)N(C(C)C)C1CCCCC1` [Example 2B, N-cyclohexyl-2-methoxy-N-(1-methylethyl)-4-(7H-purin-7-ylmethyl)benzamide] reads 44%.
